Measured values from patent USRE38169E1, “Hyperstabilizing antisense nucleic acid binding agents” (priority 1993, dated 2003).

Legend:
[1] = test system: mRNA of a fragment of the env gene of EIAV; assay: In vitro translation (wheat-germ extract, 35S-methionine); type: biochemical
Experimental: The in vitro translation studies were performed as follows. A fragment of DNA from the env gene of EIAV was transcribed with an SP-6 polymerase kit, and the resulting mRNA (approximately 600 bases long) was capped and isolated. The transcribed fragment included the target sequence 5′-[…]-3′ (SEQ ID NO. 3) (the CC-1065 binding site is underlined). The corresponding antisense sequence (using normal phosphodiester chemistry) was 5′-[…]-3′ (SEQ ID NO. 4). Translation was performed with a wheat-germ extract (Promega) in the presence of ^35S-methionine. The mRNA's were divided into approximately 2 μg aliquots, and treated according to the protocols listed for Table 3 below. Treated mRNA was separated from small molecules (such as DMSO and CC-1065) with a Sephadex 50-based NICK column. Translation was carried out in 25 μl of buffer containing the wheat germ translation system; the isolated mRNA; amino acids, including the labelled methionine; and RNAsin, an inhibitor of RNase. The proteins produced were divided into two aliquots. One aliquot was fractionated by SDS-PAGE, followed by autoradiography; and the other was analyzed by scintillation spectrometry. The concentrations of antisense oligomers and CC-1065 in the free-solution chemistries were relatively high compared to the sense target, to optimize duplex formation and drug binding. […] The following pairs were different at the P<0.05 level by Student's t-test (unpaired analysis): 1,5; 2,5; 3,4; 3,5; 4,5.

Poly rA - Oligo dT (PO) = assay: Duplex strand separation temperature (Tm); type: binding; conditions: for Tm Elevation: highest level of binding obtained
Experimental: (§1) Samples for determining Tm were also obtained by the above procedures. […] Thus the effects of this agent on Tm were carried out with Distamycin in solution with the duplexes tested.
(§2) Tm's were determined on a Gilford 2400 Spectrophotometer set at 260 nm, with a 4-chamber Peltier-based temperature controller. Temperature was ramped linearly at 0.5° C./min. Absorbance data were acquired with a 12-bit A/D converter, and data were processed with Lotus 123W and SigmaPlot software. Tm values were determined from the plots as the midpoint of the thermal transitions.

Oligo dA - Oligo dT = assay: Duplex strand separation temperature (Tm); type: binding; conditions: for Tm Elevation: highest level of binding obtained
Experimental: as §1, §2

[2] = test system: DNA sense (SEQ ID NO. 1) / DNA-PO antisense duplex (PO-PO); assay: Duplex strand separation temperature (Tm); type: binding, equine infectious anemia retrovirus; conditions: for Tm Elevation: highest level of binding obtained
Experimental: as §1, §2

[3] = test system: DNA sense (SEQ ID NO. 1) / DNA-PS antisense duplex; assay: Duplex strand separation temperature (Tm); type: binding, equine infectious anemia retrovirus; conditions: for Tm Elevation: highest level of binding obtained
Experimental: as §1, §2

[4] = test system: DNA sense (SEQ ID NO. 1) / DNA-PS antisense duplex (PO-PS); assay: Binding of drug to duplex (NACS column, A365/A260); design: species or system equine infectious anemia retrovirus; conditions: PO-PS; Initial D/N = 0.10
Experimental: (§3) Oligodeoxyribonucleotides were obtained by chemical synthesis through standard techniques on an automated synthesizer located in the Department of Veterinary Microbiology and Parasitology at Louisiana State University. Antisense MP and PS oligonucleotides were obtained from commercial sources, as was synthetic sense RNA. Poly(rA) was obtained from Sigma Chemical Co. CC-1065 was obtained from the Upjohn Company. Oligonucleotides (0.075 μmol-P each) were mixed in 0.36 ml 0.01 M Na cacodylate buffer, pH 7.2, with CC-1065 in dimethyl formamide (0.04 ml), or with dimethylformamide only. (Note that “μmol-P” denotes μmoles of phosphate; i.e., μmoles of nucleotide bases, rather than of oligonucleotides per se.) Incubations of complementary strands, with or without drug, were carried out at 37° C. for 4 hr. In the initial experiments, unbound drug was separated from nucleotide duplexes by ethanol precipitation. Equivalent results were obtained by trapping the oligonucleotides and CC-1065 on NACS-52 columns, and washing first with low-salt buffer and then with buffer containing 1M NaCl. Unbound CC-1065 was completely retained on the column. […] Samples prepared in this manner could be directly used for determination of binding of the drug to the nucleic acid (as measured by the A365/A260 ratio), with the extinction of CC-1065 absorbance at 365 nm taken as 48,000, and the extinction of the nucleic acid absorption at 260 nm based on its composition. Similar approaches were used with the drug U-71,184, with an assumed extinction of 32,000 at 365 nm.
(§4) When methyl phosphonate and synthetic RNA were used, the purities of the crude oligonucleotides were taken to be about 30%, based on the data sheet prepared by the supplier. (The remainder comprised primarily truncated sequences.) Appropriate excess amounts of these agents were included in the reactions to ensure helix formation. The corresponding sense or antisense oligonucleotides were maintained at 0.075 μmol-P in the reaction. […] Unpurified materials were used in these preliminary studies because of the relatively high cost of purified oligoribonucleotides. The majority of the contributions to A260 for these samples should be due to material that was not duplexed.
(§5) Table 1 summarizes binding data obtained from incubations of CC-1065 with nucleotides at greater than stoichiometric levels; the levels used in these experiments were 1 drug molecule/10 nucleotide residues, which is equivalent to 4 drug molecules/20-mer duplex. […] There seemed to be no difference in drug binding between antisense oligonucleotides with a PO and those with a PS backbone. Again, the 5′-AGTTA-3′ sequence on the sense strand was presumably the primary target, and the 3′-AAGTA-5′ on the antisense probe was presumably the secondary target.

[5] = test system: DNA sense (SEQ ID NO. 1) / DNA-MP antisense duplex (PO-MP); assay: Binding of drug to duplex (NACS column, A365/A260); design: species or system equine infectious anemia retrovirus
Experimental: as §3, §4, §5

[6] = test system: DNA sense (SEQ ID NO. 1) / DNA-PO antisense (SEQ ID NO. 2) duplex (PO-PO); assay: Binding of drug to duplex (NACS column, A365/A260); design: species or system equine infectious anemia retrovirus; conditions: PO-PO; Initial D/N = 0.10
Experimental: as §3, §4, §5

[7] = test system: DNA sense (SEQ ID NO. 1) / DNA-MP antisense duplex (PO-MP); assay: Duplex strand separation temperature (Tm); type: binding, equine infectious anemia retrovirus
Experimental: as §1, §2

Oligo(dA)-Oligo(dT) = assay: Binding of drug to duplex (NACS column, A365/A260); conditions: Oligo(dA)-Oligo(dT); Initial D/N = 0.10
Experimental: as §3, §4, §5

Poly(rA)-Oligo(dT) = assay: Binding of drug to duplex (NACS column, A365/A260); conditions: Poly(rA)-Oligo(dT); Initial D/N = 0.10
Experimental: as §3, §4, §5

Q: For “5′-TGTTGGGTAATAGGGGTTGA-3′ (SEQ ID NO. 4) (chemistry not given here) [antisense]”, which “DPM S-35 ± standard error” value ([1]; 1.95 μg mRNA, antisense about 3 times mRNA sense, CC-1065 3 times antisense, scintillation spectrometry) is on record?
A: The value was 35.225 ± 3.667 DPM.

Q: And the “Production of the two protein products (autoradiography)” value ([1]; SDS-PAGE, autoradiography, data not shown)?
A: Its value is “suppressed production”.

Q: What about the “Effect on translation” value ([1]; in vitro translation of env mRNA fragment) of the same molecule?
A: The value was “partially inhibit translation”.

Q: Which results are given for Cn1cc(NC(=O)c2cc(NC(=O)c3cc(NC=O)cn3C)cn2C)cc1C(=O)NCCC(=N)N [Distamycin, Distamycin A]?
A: Increase in Tm (Poly rA - Oligo dT (PO); rA-dT, Distamycin in solution at D/N = 0.1): 4.0; Tm with Distamycin, Ave ± S.D. (Poly rA - Oligo dT (PO); rA-dT, Distamycin in solution at D/N = 0.1, in °C (unit assumed)): 57.0 ± 0; Tm Elevation (Poly rA - Oligo dT (PO); rA-dT): 4.0 °C; Increase in Tm (Oligo dA - Oligo dT; dA-dT, Distamycin in solution at D/N = 0.1): 21.3; Tm with Distamycin, Ave ± S.D. (Oligo dA - Oligo dT; dA-dT, Distamycin in solution at D/N = 0.1, in °C (unit assumed)): 78.3 ± 0.6; Tm Elevation (Oligo dA - Oligo dT; dA-dT): 21.3 °C; Elevation of Tm (Oligo dA - Oligo dT; oligo(dA)-oligo(dT)): significant elevation of Tm; Increase in Tm ([2]; PO-PO, Distamycin in solution at D/N = 0.1): 0.7; Tm with Distamycin, Ave ± S.D. ([2]; PO-PO, Distamycin in solution at D/N = 0.1, in °C (unit assumed)): 68.7 ± 0.6; Tm Elevation ([2]; PO-PO): 0.7 °C; Increase in Tm ([3]; PS-PS, Distamycin in solution at D/N = 0.1): 1.5; Tm with Distamycin, Ave ± S.D. ([3]; PS-PS, Distamycin in solution at D/N = 0.1, in °C (unit assumed)): 65.7 ± 1.5; Tm Elevation ([3]; PS-PS): 1.5 °C

Q: What does the source list for Cc1c[nH]c2c1C13CC1CN(C(=O)c1cc4cc(NC(=O)c5cc6ccccc6[nH]5)ccc4[nH]1)C3=CC2=O (stereo not drawn) [U-71.184, U-71,184]?
A: Duplex Strand Separation Temperature (Poly rA - Oligo dT (PO); Poly rA / Oligo dT (PO), drug-bound duplex (Table 6)): 54.3 ± 0.6; Stabilization of duplexes (Poly rA - Oligo dT (PO); poly(rA)-oligo(dT)): failure of U-71,184 to stabilize; Tm Elevation (Poly rA - Oligo dT (PO); rA-dT): 1.3 °C; Duplex Strand Separation Temperature (Oligo dA - Oligo dT; Oligo dA / Oligo dT, drug-bound duplex (Table 6)): 86.7 ± 0.6; Tm Elevation (Oligo dA - Oligo dT; dA-dT): 29.7 °C; Bound D/N [4]: 0.026 ± 0.001; Binding for MP antisense sequences ([5]; MP antisense sequences): about 1 drug molecule/duplex; Bound D/N ([5]; PO-MP, Initial D/N = 0.10): 0.029 ± 0.001; Bound D/N [6]: 0.026 ± 0.004; Duplex Strand Separation Temperature ([2]; DNA / DNA-PO, drug-bound duplex (Table 6)): 75.5 ± 0.7; Tm Elevation ([2]; PO-PO): 7.5 °C; Duplex Strand Separation Temperature ([7]; DNA / DNA-MP, drug-bound duplex (Table 6)): 73.0 ± 1.7; Tm Elevation ([7]; PO-MP, highest level of binding obtained): 19.5 °C; Duplex Strand Separation Temperature ([3]; DNA / DNA-PS, drug-bound duplex (Table 6)): 73.0 ± 1.4; Tm Elevation ([3]; PS-PS): 8.6 °C; Bound D/N (Oligo(dA)-Oligo(dT)): 0.049 ± 0.001; Bound D/N (Poly(rA)-Oligo(dT)): 0.023 ± 0.001
